Laboratory results as given in ChEMBL document CHEMBL1201862, “PubChem BioAssay data set” (2004).
The source made the active and inactive calls. No stated cut-off is given here; in the data, actives have a measured IC50 and inactives only a lower limit.

Target: Envelope glycoprotein gp160 (Human immunodeficiency virus 1, UniProt Q6QLK5)
Test: inhibitors of HIV fusion peptide binding, primary screen, biochemical, uHTS, fluorescence dequenching (AID 1986)

Chain of Envelope glycoprotein gp160 (Q6QLK5 whole entry, the tested form may be a part): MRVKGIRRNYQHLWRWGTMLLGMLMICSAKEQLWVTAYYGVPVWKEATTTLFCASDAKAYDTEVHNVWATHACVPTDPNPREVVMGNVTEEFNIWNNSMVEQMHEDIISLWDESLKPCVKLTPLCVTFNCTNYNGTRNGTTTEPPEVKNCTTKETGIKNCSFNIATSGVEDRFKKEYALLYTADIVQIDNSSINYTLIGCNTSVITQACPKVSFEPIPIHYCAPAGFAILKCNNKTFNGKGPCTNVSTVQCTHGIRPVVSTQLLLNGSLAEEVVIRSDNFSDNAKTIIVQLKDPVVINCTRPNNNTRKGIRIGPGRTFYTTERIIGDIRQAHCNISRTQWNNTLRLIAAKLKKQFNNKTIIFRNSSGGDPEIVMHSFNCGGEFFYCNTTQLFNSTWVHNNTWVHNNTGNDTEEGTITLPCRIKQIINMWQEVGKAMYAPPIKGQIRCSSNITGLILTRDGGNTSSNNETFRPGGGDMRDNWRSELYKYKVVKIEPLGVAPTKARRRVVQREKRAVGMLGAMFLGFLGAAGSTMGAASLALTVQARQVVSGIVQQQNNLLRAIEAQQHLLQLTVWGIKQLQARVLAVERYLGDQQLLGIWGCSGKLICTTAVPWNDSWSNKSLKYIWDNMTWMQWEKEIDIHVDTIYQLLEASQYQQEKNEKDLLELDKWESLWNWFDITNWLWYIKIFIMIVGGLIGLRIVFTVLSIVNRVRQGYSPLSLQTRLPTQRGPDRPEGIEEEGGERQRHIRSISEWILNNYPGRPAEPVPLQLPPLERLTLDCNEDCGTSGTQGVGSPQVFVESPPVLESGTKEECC

| Structure (SMILES) | IC50 |
| --- | --- |
| CS(=O)(=O)C1=NSC2=NC(=O)/C(=C\c3ccc(OC(=O)c4ccco4)c(Br)c3)C(=N)N21 | 16 µM (active) |
| Cc1ccc(/C=C2\SC(=S)N(CCCC(=O)Nc3ccccc3C(=O)O)C2=O)cc1 | 27.8 µM (active) |
